Assay [1] addresses ^3H-MK6240 binding sites in the temporal cortex (Homo sapiens, UniProt P10636). Put plainly: Competitive binding assay with ^3H-MK6240 (0.5 nM) on AD temporal cortex homogenates. Conditions: for Fraction of sites with super-high affinity for the competitor (%): radioligand ^3H-MK6240, temporal cortex; for IC50: 2-site competition model, temporal cortex. The protocol:
(§1) Frozen post-mortem tissue from eight AD and seven control brains from the Netherlands Brain Bank (NBB) was homogenized in phosphate buffer saline (PBS) with additional 0.1% bovine serum albumin (BSA; […]) and protease/phosphatase inhibitors (10 μL/mL).
Competitive binding assays with ^3H-MK6240 (0.5 nM) were carried out for 90 min at 37 °C on temporal cortex homogenates from two AD brains, in PBS + 0.1% BSA (pH 7.4), using increasing concentrations of unlabelled MK6240, unlabelled THK5117 or unlabelled AV-1451 (1.10^−14–1.10^−5 M). The binding assay was terminated as described above. The half-maximal […] concentration (IC50) was determined using GraphPad Prism software and data were analysed using a 2-site competition model.

Assay [2] deals with ^3H-THK5351 binding sites in the hippocampus. Also noted: method as in Lemoine et al. [12]. Conditions: ref Lemoine et al. [12], cited from earlier work; for Fraction of sites with super-high affinity for the competitor (%): radioligand ^3H-THK5351.
For assay [3], the target named is AD tissue. As to conditions: ref [7], [21], cited from earlier work.
Assay [4] has as its system ^18F-AV-1451 binding sites in AD brains. The arrangement: method as in Ni et al. (unpublished data). As to conditions: versus ^18F-AV-1451, ref Ni et al. (unpublished data), cited from earlier work.
Assay [5] concerns ^3H-THK5351 binding sites in the hippocampus. Put plainly: Competitive binding assay with ^3H-THK5351 (1.5 nM) on AD hippocampus homogenates. The arrangement: species or system human. The protocol:
as §1
Competitive binding assays were also carried out with ^3H-THK5351 (1.5 nM) in PBS + 0.1% BSA (pH 7.4) on hippocampus homogenates, using increasing concentrations of unlabelled MK6240 (1.10^−14–1.10^−5 M) in PBS + 0.1% BSA for 2 h at room temperature.

Assay [6] concerns ^3H-AV-1451 binding sites. Also noted: method as in Hostetler et al. [21]. Conditions: ref Hostetler et al. [21]; cited from earlier work.
The mark [7] stands for this setting: site 1, super-high affinity, read-out: IC50(supHigh).
Setting [8] is: site 2, high affinity, read-out: IC50(High).

Like-named read-outs stand apart in the source and are kept apart here.

Sequence of ^3H-MK6240 binding sites in the temporal cortex (P10636 623-695 limits assumed): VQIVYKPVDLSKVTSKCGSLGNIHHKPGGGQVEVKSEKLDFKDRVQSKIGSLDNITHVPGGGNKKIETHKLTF

For `CNc1ccc(-c2ccc3cc(OCC(O)CF)ccc3n2)cc1` (stereo not drawn) [THK5117], in assay [1] (^3H-MK6240 competitions), the “Low affinity sites, fraction” value was 63%. For the same compound, the “Fraction of sites with super-high affinity for the competitor (%)” value (from here on “Fraction of sites … (%)”) is 37% in assay [1] and 46% in assay [2]. For the same compound, the IC50 – broadly, the concentration needed to halve the response being measured – in assay [1] (setting [7]) came to 0.002 nM; in assay [1] (site 2, low affinity, read-out: IC50(low)) it was 304 nM. Besides, in assay [2] (^3H-THK5351 competitions), the “High affinity sites, fraction” value is 54%. For the same compound, in assay [3], the Kd (in general, the concentration at which binding is half-saturated) was 2.2 nM.
`CNc1ccc(-c2ccc3cc(OC[C@H](O)CF)ccc3n2)cn1` [THK5351]: the “High affinity sites, fraction” value in assay [2] (^3H-THK5351 competitions) is recorded as 38%. Moreover, the “Fraction of sites … (%)” value in assay [2] was 62%.
On to `Fc1ccc(-c2ccc3c(c2)[nH]c2ccncc23)cn1` [AV-1451], for which the “High affinity sites, fraction” value in assay [1] (^3H-MK6240 competitions) was determined as 26%. Moreover, the “Fraction of sites … (%)” value is listed as 74% in assay [1] and 35% in assay [2]. Further, in assay [1] (setting [8]), the IC50 was found to be 2 nM. In assay [2] (^3H-THK5351 competitions), the “Low affinity sites, fraction” value was 65%. Further, the Kd in assay [3] (unit inferred) was 0.6 to 3.7 nM. In addition, the “Proportion of sites with high affinity for the competitor” value was 61% in assay [4] (frontal cortex) and 88% in assay [4] (temporal cortex of AD brains).
As to `Nc1c(F)ccc2cnc(-n3ccc4ccncc43)cc12` [MK6240], in assay [1] (^3H-MK6240 competitions), the “High affinity sites, fraction” value stood at 42%. In addition, the “Fraction of sites … (%)” value in assay [1] is 58%; in assay [5] (radioligand ^3H-THK5351, hippocampus) it was 0%. Also, the IC50 in assay [1] (setting [7]) came to 0.001 nM; in assay [1] (setting [8]) it was 12 nM. Also, in assay [5] (unlabelled MK6240 1.10^-14-1.10^-5 M, hippocampus of three AD patients), the “Competition with ^3H-THK5351” value was “did not compete”. In assay [6], the “Competition with ^3H-AV-1451” value is reported as “lack of competition”.

The record behind these values is PMC8041708, “Characterization of MK6240, a tau PET tracer, in autopsy brain tissue from Alzheimer’s disease cases” (European Journal of Nuclear Medicine and Molecular Imaging, 2020).
